The record followed here is PMC7181695, “Targeting the interaction between RNA-binding protein HuR and FOXQ1 suppresses breast cancer invasion and metastasis” (Communications Biology, 2020).

The target of this assay is T1, HuR (Hu antigen R, ELAVL1) (Homo sapiens, UniProt Q15717).
T1 construct: full-length HuR (FP, SPR); HuR RRM1/2 (AlphaLISA, SPR)
Briefly: FP competition with fluorescein-labeled ARE-Msi1 RNA; SPR direct binding to immobilized HuR; AlphaLISA (Ki […]); CETSA in MDA-MB-231 cells.

One may read the Ki as the equilibrium dissociation constant of an inhibitor or competing ligand from its target. A low value points to tighter binding.

T1 sequence (Q15717 2-326): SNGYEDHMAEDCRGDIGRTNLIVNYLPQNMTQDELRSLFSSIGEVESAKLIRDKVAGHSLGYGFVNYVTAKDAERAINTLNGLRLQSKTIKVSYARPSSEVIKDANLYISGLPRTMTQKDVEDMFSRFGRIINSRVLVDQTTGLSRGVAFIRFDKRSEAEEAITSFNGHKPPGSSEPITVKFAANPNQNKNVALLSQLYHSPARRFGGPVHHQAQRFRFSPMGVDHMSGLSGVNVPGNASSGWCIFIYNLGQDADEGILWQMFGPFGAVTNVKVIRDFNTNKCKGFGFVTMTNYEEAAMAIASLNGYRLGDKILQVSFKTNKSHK

`CC(C)(C)c1ccc(S(=O)(=O)Nc2ccc3sc(/C=C/C(=O)NO)cc3c2)cc1` [KH-3, (E)-3-(5-((4-(tert-Butyl)phenyl)sulfonamido)benzo[b]thiophen-2-yl)-N-hydroxyacrylamide] had a Ki of 830 nM.
